In general, IC50 refers to the point on the concentration scale where inhibition reaches its midpoint.

Molecules are shown by their SMILES. Bounds are passed on as bounds.

The target of this assay is human NaV subtype, like NaV 1.7 (Homo sapiens, UniProt Q15858). Description: E-VIPR optical membrane potential assay with electrical stimulation. It is filed as cell-based. As to conditions: active against one or more sodium channels; assay and NaV subtype not specified for Table 3; read-out: IC50 Binned Activity Data.
Chain of human NaV subtype, like NaV 1.7 (Q15858 whole entry): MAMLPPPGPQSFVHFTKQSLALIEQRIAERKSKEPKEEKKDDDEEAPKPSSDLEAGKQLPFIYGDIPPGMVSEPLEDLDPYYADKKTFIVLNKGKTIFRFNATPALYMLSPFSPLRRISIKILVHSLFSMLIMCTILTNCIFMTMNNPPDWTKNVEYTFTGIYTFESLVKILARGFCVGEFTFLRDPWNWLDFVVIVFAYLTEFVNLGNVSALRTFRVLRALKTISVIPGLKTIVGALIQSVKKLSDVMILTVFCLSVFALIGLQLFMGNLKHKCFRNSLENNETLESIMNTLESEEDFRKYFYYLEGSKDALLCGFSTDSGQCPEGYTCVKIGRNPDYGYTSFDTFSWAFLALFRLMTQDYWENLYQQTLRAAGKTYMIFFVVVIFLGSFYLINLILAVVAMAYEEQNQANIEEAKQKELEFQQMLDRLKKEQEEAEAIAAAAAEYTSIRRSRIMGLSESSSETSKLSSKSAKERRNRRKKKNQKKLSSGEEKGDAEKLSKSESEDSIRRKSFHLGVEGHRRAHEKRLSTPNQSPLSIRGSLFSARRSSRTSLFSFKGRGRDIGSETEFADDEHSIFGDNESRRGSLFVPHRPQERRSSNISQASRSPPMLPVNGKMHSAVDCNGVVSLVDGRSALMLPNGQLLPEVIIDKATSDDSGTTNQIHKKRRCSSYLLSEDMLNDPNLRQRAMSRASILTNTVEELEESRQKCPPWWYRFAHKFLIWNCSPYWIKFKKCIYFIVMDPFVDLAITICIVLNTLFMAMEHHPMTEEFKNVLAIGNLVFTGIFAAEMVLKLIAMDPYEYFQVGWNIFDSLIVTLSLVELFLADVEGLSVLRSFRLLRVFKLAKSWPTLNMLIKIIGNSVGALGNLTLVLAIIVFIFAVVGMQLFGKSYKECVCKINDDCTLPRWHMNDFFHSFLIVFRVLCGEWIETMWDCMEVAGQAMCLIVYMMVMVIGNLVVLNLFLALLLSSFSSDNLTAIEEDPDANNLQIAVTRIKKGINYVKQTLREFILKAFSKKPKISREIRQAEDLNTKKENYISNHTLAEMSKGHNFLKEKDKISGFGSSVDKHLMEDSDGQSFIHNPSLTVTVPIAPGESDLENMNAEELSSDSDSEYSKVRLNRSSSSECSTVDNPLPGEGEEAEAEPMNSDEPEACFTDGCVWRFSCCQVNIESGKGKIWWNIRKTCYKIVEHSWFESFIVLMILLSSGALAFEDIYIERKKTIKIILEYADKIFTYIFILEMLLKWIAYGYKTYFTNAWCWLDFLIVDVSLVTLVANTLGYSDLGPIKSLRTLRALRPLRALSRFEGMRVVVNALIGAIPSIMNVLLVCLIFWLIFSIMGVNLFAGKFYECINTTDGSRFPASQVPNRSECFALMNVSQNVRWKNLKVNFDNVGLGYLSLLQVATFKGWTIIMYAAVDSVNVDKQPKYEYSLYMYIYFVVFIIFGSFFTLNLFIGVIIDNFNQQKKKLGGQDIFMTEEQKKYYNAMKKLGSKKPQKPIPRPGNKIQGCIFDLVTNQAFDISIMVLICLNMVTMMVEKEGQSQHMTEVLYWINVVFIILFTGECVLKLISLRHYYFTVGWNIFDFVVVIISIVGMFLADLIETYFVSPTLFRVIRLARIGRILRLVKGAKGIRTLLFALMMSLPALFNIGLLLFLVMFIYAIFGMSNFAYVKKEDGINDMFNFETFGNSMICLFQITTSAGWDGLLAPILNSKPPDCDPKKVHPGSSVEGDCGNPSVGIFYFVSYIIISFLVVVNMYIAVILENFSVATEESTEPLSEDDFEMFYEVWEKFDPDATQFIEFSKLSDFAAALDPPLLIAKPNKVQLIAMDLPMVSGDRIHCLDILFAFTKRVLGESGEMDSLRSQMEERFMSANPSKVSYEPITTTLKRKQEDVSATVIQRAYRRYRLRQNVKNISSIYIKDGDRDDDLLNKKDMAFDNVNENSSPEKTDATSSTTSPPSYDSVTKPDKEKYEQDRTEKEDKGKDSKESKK
For the compound `Cc1cc(C(=O)N2CCC3(CC2)CN(CC(F)F)CC(c2ncc(C(C)(C)C)o2)O3)ccc1OC(C)C` (centres unmarked) [Compound 230], the IC50 was under 2000 nM. Turning to `CC#CCN1CC(CC)OC2(CCN(C(=O)c3ccc(OC(C)C)c(C#N)c3)CC2)C1` (centres unmarked) [Compound 231], the IC50 was over 5000 nM.

`COCC1CN(C2CCC[C@@H](C)C2)CC2(CCN(C(=O)c3ccc(OC(C)C)c(C)c3)CC2)O1` (some centres unmarked) [Compound 232]: the IC50 is under 2000 nM. In the case of `CCC1CN(CC(F)(F)F)CC2(CCN(C(=O)c3ccc(OC(C)C)c(C)c3)CC2)O1` (centres unmarked) [Compound 233] it was under 2000 nM; in that of `COc1cc(C(=O)N2CCC3(CC2)CN(CC(F)(F)F)CC(c2ccccc2)O3)cc(F)c1OC(C)C` (centres unmarked) [Compound 234], under 2000 nM; in that of `CCOCC1CN(c2ncccn2)CC2(CCN(C(=O)c3ccc(OC(C)C)c(C)c3)CC2)O1` (centres unmarked) [Compound 235], under 2000 nM. Then `CCC1CN(c2ncccn2)CC2(CCN(C(=O)c3ccc(OC(C)C)c(C)c3)CC2)O1` (centres unmarked) [Compound 236], with under 2000 nM; and `COCC1CN(c2ncccn2)CC2(CCN(C(=O)c3ccc(C4(O)CCCCC4)cc3)CC2)O1` (centres unmarked) [Compound 237], with under 2000 nM; and `CCC1CN(c2ncccn2)CC2(CCN(C(=O)c3ccc(S(=O)(=O)C(C)C)c(C)c3)CC2)O1` (centres unmarked) [Compound 238], with 2000 to 5000 nM. Then `CC#CCN1CC(CC)OC2(CCN(C(=O)c3ccc(OC(C)C)c(F)c3)CC2)C1` (centres unmarked) [Compound 239], with over 5000 nM; and `COCC1CN(c2ncccn2)CC2(CCN(C(=O)c3ccc(CC(C)(C)O)cc3)CC2)O1` (centres unmarked) [Compound 240], with over 5000 nM; and `CC(C)(O)c1ccc(C(=O)N2CCC3(CC2)CN(CC(F)F)CC(c2ccccc2)O3)cc1` (centres unmarked) [Compound 241], with 2000 to 5000 nM. In the case of `CC#CCN1CC(CC)OC2(CCN(C(=O)c3ccc(OCC)c(C)c3)CC2)C1` (centres unmarked) [Compound 242], the IC50 was in the range of 2000 to 5000 nM.

In the case of `CC(C)Oc1ccc(C(=O)N2CCC3(CC2)CN(CC(F)F)CC(c2ncco2)O3)cc1F` (centres unmarked) [Compound 243], the IC50 was under 2000 nM. In the case of `CC(C)Oc1ccc(C(=O)N2CCC3(CC2)CN(CC(F)F)CC(c2ccc(F)cc2)O3)cc1F` (centres unmarked) [Compound 244] it was under 2000 nM; in that of `Cc1cc(C(=O)N2CCC3(CC2)CN(CC(F)(F)F)CC(c2ccccc2)O3)ccc1OC1COC1` (centres unmarked) [Compound 245], under 2000 nM; in that of `Cc1nc(C(=O)N2CCC3(CC2)CN(CC(F)F)CC(c2ccccc2)O3)ccc1OC(C)C` (centres unmarked) [Compound 246], under 2000 nM. In the case of `COc1cc(C(=O)N2CCC3(CC2)CN(CC(F)F)CC(c2ccc(F)cc2)O3)ccc1OC(C)(C)C` (centres unmarked) [Compound 247] it was 2000 to 5000 nM; in that of `CC#CCN1CC(CC)OC2(CCN(C(=O)c3ccc(OC(C)C)c(C)c3)CC2)C1` (centres unmarked) [Compound 248], under 2000 nM. In the case of `COCC1CN(CC(=O)C2CC2)CC2(CCN(C(=O)c3ccc(OC(C)C)c(C)c3)CC2)O1` (centres unmarked) [Compound 249] it was 2000 to 5000 nM; in that of `CCN1CC(c2ncc(C)s2)OC2(CCN(C(=O)c3ccc(OC(C)C)c(C)c3)CC2)C1` (centres unmarked) [Compound 250], under 2000 nM; in that of `Cc1cc(C(=O)N2CCC3(CC2)CN(CC(F)(F)F)CC(c2ccccc2)O3)ccc1C1COC1` (centres unmarked) [Compound 251], under 2000 nM.

With `COCC1CN(Cc2nccs2)CC2(CCN(C(=O)c3ccc(OC(C)C)c(C)c3)CC2)O1` (centres unmarked) [Compound 252], the IC50 fell in the range of 2000 to 5000 nM.

For the compound `COc1cc(C(=O)N2CCC3(CC2)CN(CC(F)F)CC(c2cccc(C)n2)O3)ccc1OC(C)C` (centres unmarked) [Compound 253], the IC50 was in the range of 2000 to 5000 nM.

`CCN1CC(COC)OC2(CCN(C(=O)c3ccc(OC(C)C)c(C)c3)CC2)C1` (centres unmarked) [Compound 254]: the IC50 was 2000 to 5000 nM. Turning to `COCC1CN(C2COC2)CC2(CCN(C(=O)c3ccc(OC(C)C)c(C)c3)CC2)O1` (centres unmarked) [Compound 255], the IC50 is over 5000 nM.

As to `COCN1CC(c2cccc(OC)n2)OC2(CCN(C(=O)c3ccc(OC(C)C)c(C)c3)CC2)C1` (centres unmarked) [Compound 256], the IC50 was under 2000 nM. In the case of `CC(C)(O)c1ccc(C(=O)N2CCC3(CC2)CN(CC(F)(F)F)CC(c2ccccc2)O3)cc1F` (centres unmarked) [Compound 257] it was under 2000 nM. Then `COCC1CN(c2cccc(C(F)(F)F)c2)CC2(CCN(C(=O)c3ccc(OC(C)C)c(C)c3)CC2)O1` (centres unmarked) [Compound 258], with under 2000 nM. In the case of `CCN1CC(c2ccc(F)cc2)OC2(CCN(C(=O)c3ccc(OC(C)C)c(F)c3)CC2)C1` (centres unmarked) [Compound 259] it was under 2000 nM. With `COCC1CN(CC(F)(F)F)CC2(CCN(C(=O)c3ccc(OC(C)C)c(C)c3)CC2)O1` (centres unmarked) [Compound 260], the IC50 is under 2000 nM. Then `Cc1cccnc1C1CN(CC(F)F)CC2(CCN(C(=O)c3ccc(OC(C)C)c(F)c3)CC2)O1` (centres unmarked) [Compound 261], with under 2000 nM; and `CCC1CN(CC(=O)C(C)(C)C)CC2(CCN(C(=O)c3ccc(OC(C)C)c(C)c3)CC2)O1` (centres unmarked) [Compound 262], with under 2000 nM. For the compound `CC(C)Oc1ccc(C(=O)N2CCC3(CC2)CN(CC(F)F)CC(c2ccn(C)n2)O3)cc1F` (centres unmarked) [Compound 263], the IC50 was under 2000 nM. Then `COCN1CC(c2ncccn2)OC2(CCN(C(=O)c3ccc(C4(O)CCC4)cc3)CC2)C1` (centres unmarked) [Compound 264], with over 5000 nM; and `Cc1cccc(C2CN(CC(F)F)CC3(CCN(C(=O)c4ccc(S(=O)(=O)C(C)C)c(C)c4)CC3)O2)n1` (centres unmarked) [Compound 265], with 2000 to 5000 nM; and `CCC(=O)N1CC(c2ccccc2)OC2(CCN(C(=O)c3ccc(OC(C)C)c(C)c3)CC2)C1` (centres unmarked) [Compound 266], with 2000 to 5000 nM. Turning to `COCC1CN(c2ncccn2)CC2(CCN(C(=O)c3ccc(C(C)(C)O)c(C)c3)CC2)O1` (centres unmarked) [Compound 267], the IC50 was 2000 to 5000 nM. Then `Cc1cnc(C2CN(C(C)(C)C)CC3(CCN(C(=O)c4ccc(OC(C)C)c(F)c4)CC3)O2)o1` (centres unmarked) [Compound 268], with 2000 to 5000 nM. Then `CC(C)(C)S(=O)(=O)c1ccc(C(=O)N2CCC3(CC2)CN(CC(F)F)CC(c2ccc(F)cc2)O3)cc1` (centres unmarked) [Compound 269], with 2000 to 5000 nM; and `COCC1CN(C2CCOCC2)CC2(CCN(C(=O)c3ccc(OC(C)C)c(C)c3)CC2)O1` (centres unmarked) [Compound 270], with 2000 to 5000 nM.

As to `CCC1CN(c2ncccn2)CC2(CCN(C(=O)c3ccc(C4(O)CCCC4)c(F)c3)CC2)O1` (centres unmarked) [Compound 271], the IC50 was under 2000 nM. As to `CCOCC1CN(CC)CC2(CCN(C(=O)c3ccc(OC(C)C)c(C)c3)CC2)O1` (centres unmarked) [Compound 272], the IC50 is over 5000 nM.

Consider `CC(C)(O)COc1ccc(C(=O)N2CCC3(CC2)CN(CC(F)(F)F)CC(c2ccccc2)O3)cc1` (centres unmarked) [Compound 273], for which the IC50 was in the range of 2000 to 5000 nM. Then `COc1cc(C(=O)N2CCC3(CC2)CN(CC(F)F)CC(c2ccc(F)cc2)O3)ccc1OC(C)C` (centres unmarked) [Compound 274], with under 2000 nM. Then `CC(C)(O)c1ccc(C(=O)N2CCC3(CC2)CN(CC#N)CC(c2ccccc2)O3)cc1` (centres unmarked) [Compound 275], with over 5000 nM; and `COCC1CN(c2ncccn2)CC2(CCN(C(=O)c3ccc(OCCC(C)C)c(OC)c3)CC2)O1` (centres unmarked) [Compound 276], with under 2000 nM; and `CC#CCN1CC(CC)OC2(CCN(C(=O)c3ccc(OC(C)C)c(C)n3)CC2)C1` (centres unmarked) [Compound 277], with 2000 to 5000 nM. Then `COc1cc(C(=O)N2CCC3(CC2)CN(CC(F)(F)F)CC(c2ccccc2)O3)ccc1OC(C)C` (centres unmarked) [Compound 278], with under 2000 nM.

`O=C(c1ccc(S(=O)(=O)NC2CC2)cc1)N1CCC2(CC1)CN(CC(F)F)CC(c1ccc(F)cc1)O2` (centres unmarked) [Compound 280]: the IC50 lay within 2000 to 5000 nM. Then `Cc1cc(C(=O)N2CCC3(CC2)CN(C(C)C)CC(c2ccccc2)O3)ccc1OC(C)C` (centres unmarked) [Compound 281], with under 2000 nM. In the case of `COCC1CN(c2ncccn2)CC2(CCN(C(=O)c3ccc(OC(C)C)c(C)n3)CC2)O1` (centres unmarked) [Compound 282] it was under 2000 nM. Consider `Cc1cc(C(=O)N2CCC3(CC2)CN(CC#N)CC(c2ccccc2)O3)ccc1OC(C)C` (centres unmarked) [Compound 283], for which the IC50 was under 2000 nM. In the case of `COCC1CN(c2ncccn2)CC2(CCN(C(=O)c3ccc(OC)c(C(F)(F)F)c3)CC2)O1` (centres unmarked) [Compound 284] it was under 2000 nM; in that of `COCC1CN(C2CCC2)CC2(CCN(C(=O)c3ccc(OC(C)C)c(C)c3)CC2)O1` (centres unmarked) [Compound 285], under 2000 nM; in that of `COCC1CN(c2ccccc2)CC2(CCN(C(=O)c3ccc(OC(C)C)c(C)c3)CC2)O1` (centres unmarked) [Compound 286], under 2000 nM.

`COCC1CN(CC2CC2)CC2(CCN(C(=O)c3ccc(OC(C)C)c(C)c3)CC2)O1` (centres unmarked) [Compound 287]: the IC50 is under 2000 nM.

For the compound `CCC1CN(c2ccccn2)CC2(CCN(C(=O)c3ccc(C4(O)CCCC4)cc3)CC2)O1` (centres unmarked) [Compound 288], the IC50 is under 2000 nM. Then `Cc1cc(C(=O)N2CCC3(CC2)CN(C(=O)C(C)C)CC(c2ccccc2)O3)ccc1OC(C)C` (centres unmarked) [Compound 289], with 2000 to 5000 nM; and `O=C(c1ccc(C(F)(F)F)cn1)N1CCC2(CC1)CN(CC(F)F)CC(c1ccccc1)O2` (centres unmarked) [Compound 290], with over 5000 nM; and `COCC1CN(c2cccnc2)CC2(CCN(C(=O)c3ccc(OC(C)C)c(C)c3)CC2)O1` (centres unmarked) [Compound 291], with under 2000 nM. In the case of `COC(=O)C(C)(C)c1ccc(C(=O)N2CCC3(CC2)CN(CC(F)(F)F)CC(c2ccccc2)O3)cc1OC` (centres unmarked) [Compound 292] it was 2000 to 5000 nM; in that of `CCN(CC)C(=O)c1ccc(C(=O)N2CCC3(CC2)CN(CC(F)(F)F)CC(c2ccccc2)O3)cc1F` (centres unmarked) [Compound 293], under 2000 nM; in that of `CCC1CN(c2ccccn2)CC2(CCN(C(=O)c3ccc(OC(C)C)c(C)c3)CC2)O1` (centres unmarked) [Compound 295], under 2000 nM. In the case of `Cc1cc(C(=O)N2CCC3(CC2)CN(CC(F)F)CC(c2ccccn2)O3)ccc1OCCO` (centres unmarked) [Compound 296] it was over 5000 nM; in that of `COc1cc(C(=O)N2CCC3(CC2)CN(CC(F)F)CC(c2ccccn2)O3)cc(F)c1OC(C)C` (centres unmarked) [Compound 297], under 2000 nM.

With `Cc1cn[nH]c1C1CN(CC(F)F)CC2(CCN(C(=O)c3ccc(OC(C)C)c(F)c3)CC2)O1` (centres unmarked) [Compound 298], the IC50 is under 2000 nM.

Consider `O=C(c1cccc(F)c1OC(F)F)N1CCC2(CC1)CN(CC(F)(F)F)CC(c1ccccc1)O2` (centres unmarked) [Compound 299], for which the IC50 is over 5000 nM.
